Broadly, the IC50 is the point on the concentration scale where inhibition reaches its midpoint. Usually Ki stands for the dissociation constant of the complex between target and ligand, obtained from inhibition or displacement.

In experiment [1] the target is T1, Alpha-1D adrenergic receptor (Homo sapiens, UniProt P25100). Also: in other assays of this panel Not Active means under 50% inhibition at 10 µM.
T1 sequence (P25100 whole entry): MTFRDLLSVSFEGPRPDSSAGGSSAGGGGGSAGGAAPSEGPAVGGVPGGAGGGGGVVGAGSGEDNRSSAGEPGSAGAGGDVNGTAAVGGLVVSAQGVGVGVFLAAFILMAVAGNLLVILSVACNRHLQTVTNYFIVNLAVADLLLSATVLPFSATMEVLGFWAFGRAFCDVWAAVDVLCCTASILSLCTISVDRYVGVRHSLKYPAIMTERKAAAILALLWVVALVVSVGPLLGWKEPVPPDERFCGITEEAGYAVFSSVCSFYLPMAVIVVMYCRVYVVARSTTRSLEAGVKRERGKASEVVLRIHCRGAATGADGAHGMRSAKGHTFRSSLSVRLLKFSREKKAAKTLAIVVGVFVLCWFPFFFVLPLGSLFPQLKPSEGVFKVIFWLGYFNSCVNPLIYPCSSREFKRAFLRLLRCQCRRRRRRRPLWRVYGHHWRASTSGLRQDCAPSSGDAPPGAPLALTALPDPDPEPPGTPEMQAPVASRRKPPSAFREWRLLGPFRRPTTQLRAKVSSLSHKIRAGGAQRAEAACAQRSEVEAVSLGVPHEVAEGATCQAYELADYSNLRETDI
The format is cell membranes, HEK293, Membrane.

The target of experiment [2] is Sodium-dependent noradrenaline transporter (Homo sapiens, UniProt P23975). Briefly: DRUGMATRIX: Norepinephrine Transporter radioligand binding (ligand: [125I] RTI-55). The format is cell membranes, MDCK, Membrane. Conditions: Not Active = under 50% inhibition at 10 µM.
The target in experiment [3] is 5-hydroxytryptamine receptor 4 (Cavia porcellus, UniProt O70528). The format is cell membranes, Dunkin-Hartley, Striatum, Membrane. Also: in other assays of this panel Not Active means under 50% inhibition at 10 µM.
Another experiment deals with Histamine H2 receptor (Homo sapiens, UniProt P25021). The format is cell membranes, CHO-K1, Membrane. Conditions: cho-k1.
Experiment [4] in a line: DRUGMATRIX: Platelet-Derived Growth Factor (PDGF) radioligand binding (ligand: [125I] PDGF). The format is cell-based. Conditions: nih3t3; Not Active = under 50% inhibition at 10 µM.
The target of experiment [5] is Protein phosphatase 3 catalytic subunit alpha (Homo sapiens, UniProt Q08209). Also on record: species or system Escherichia coli.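 Also: inhibition of calcineurin (PP2B) enzyme activity, measured with DiFMUP as the substrate; in other assays of this panel Not Active means under 50% inhibition at 10 µM.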
The next experiment concerns the target T2, Adenosine receptor A1 (Homo sapiens, UniProt P30542).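 Also: radioligand binding assay at the adenosine A1 receptor, with DPCPX serving as the labelled ligand; in other assays of this panel Not Active means under 50% inhibition at 10 µM.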
T2 sequence (P30542 whole entry): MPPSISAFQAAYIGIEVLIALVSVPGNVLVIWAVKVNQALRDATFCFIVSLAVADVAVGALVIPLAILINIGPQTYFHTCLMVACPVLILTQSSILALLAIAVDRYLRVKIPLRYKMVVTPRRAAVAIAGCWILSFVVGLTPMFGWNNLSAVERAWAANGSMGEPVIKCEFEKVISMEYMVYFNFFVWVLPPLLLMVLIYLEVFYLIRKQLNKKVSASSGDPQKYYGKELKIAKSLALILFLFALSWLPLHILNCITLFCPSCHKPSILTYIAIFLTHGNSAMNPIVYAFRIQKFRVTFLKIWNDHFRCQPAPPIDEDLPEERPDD
The format is cell membranes, CHO, Membrane. Conditions: cho.

Chain of Sodium-dependent noradrenaline transporter (P23975 whole entry): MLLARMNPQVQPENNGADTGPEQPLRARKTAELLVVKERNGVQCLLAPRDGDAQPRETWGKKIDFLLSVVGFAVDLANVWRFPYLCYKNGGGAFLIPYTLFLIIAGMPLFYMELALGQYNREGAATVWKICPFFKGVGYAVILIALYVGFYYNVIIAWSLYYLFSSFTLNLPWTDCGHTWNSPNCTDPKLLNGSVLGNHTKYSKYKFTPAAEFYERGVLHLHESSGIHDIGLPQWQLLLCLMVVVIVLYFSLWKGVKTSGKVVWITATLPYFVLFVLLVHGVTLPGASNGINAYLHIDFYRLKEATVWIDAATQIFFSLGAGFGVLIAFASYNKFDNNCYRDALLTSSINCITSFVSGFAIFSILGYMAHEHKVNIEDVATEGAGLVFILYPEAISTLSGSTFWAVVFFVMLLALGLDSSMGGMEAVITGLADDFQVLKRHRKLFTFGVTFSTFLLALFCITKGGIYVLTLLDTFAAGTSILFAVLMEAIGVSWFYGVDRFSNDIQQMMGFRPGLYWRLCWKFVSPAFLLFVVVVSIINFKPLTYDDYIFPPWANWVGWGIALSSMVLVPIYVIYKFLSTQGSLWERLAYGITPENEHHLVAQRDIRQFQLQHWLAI
Chain of 5-hydroxytryptamine receptor 4 (O70528 whole entry): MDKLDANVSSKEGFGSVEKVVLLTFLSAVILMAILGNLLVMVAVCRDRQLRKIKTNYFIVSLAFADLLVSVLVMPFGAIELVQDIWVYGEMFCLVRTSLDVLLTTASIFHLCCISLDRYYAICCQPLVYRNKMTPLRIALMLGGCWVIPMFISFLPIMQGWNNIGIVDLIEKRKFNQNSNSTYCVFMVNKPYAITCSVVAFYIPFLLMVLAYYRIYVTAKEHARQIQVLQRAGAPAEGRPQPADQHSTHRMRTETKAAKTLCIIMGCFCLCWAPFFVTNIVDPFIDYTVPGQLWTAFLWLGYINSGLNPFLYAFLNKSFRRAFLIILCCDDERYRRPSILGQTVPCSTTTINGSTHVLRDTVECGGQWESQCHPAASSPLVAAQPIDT
Chain of Histamine H2 receptor (P25021 whole entry): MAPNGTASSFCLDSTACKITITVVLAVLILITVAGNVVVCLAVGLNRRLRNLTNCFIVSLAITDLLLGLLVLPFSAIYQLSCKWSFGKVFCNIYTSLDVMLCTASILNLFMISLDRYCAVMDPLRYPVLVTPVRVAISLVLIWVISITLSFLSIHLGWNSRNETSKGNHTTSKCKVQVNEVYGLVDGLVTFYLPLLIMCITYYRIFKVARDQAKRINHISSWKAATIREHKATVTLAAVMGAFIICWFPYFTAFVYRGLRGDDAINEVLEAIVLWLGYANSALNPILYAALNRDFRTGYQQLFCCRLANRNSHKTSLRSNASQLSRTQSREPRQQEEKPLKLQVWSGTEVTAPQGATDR

On to `CO[C@@H]1[C@@H](OC)[C@H](C)[C@@](O)(CC(=O)O)O[C@H]1[C@H](C)[C@H]1O[C@@]2(CC[C@@](C)([C@H]3CC[C@@](C)([C@@H]4O[C@@H]([C@H]5O[C@](C)(O)[C@H](C)C[C@@H]5C)C[C@@H]4O[C@@H]4C[C@H](OC)[C@@H](OC)[C@H](C)O4)O3)O2)C[C@H](O)[C@H]1C` [MADURAMICIN ACID], for which the half-maximal inhibitory concentration (IC50) was 1130 nM in experiment [1] (read-out: IC50); “Not Active” in experiment [2] (mdck); “Not Active” in experiment [3]; “Not Active” against Histamine H2 receptor; “Not Active” in experiment [4]; “Not Active” in experiment [5]. For the same compound, the IC50 entry at Adenosine receptor A1 is “Not Active”. In addition, the inhibition constant Ki in experiment [1] (read-out: Ki) was 554 nM; in experiment [4], “Not Active”.
As to `CCN(CC)CC(=O)Nc1c(C)cccc1C` [LIDOCAINE], the 50% inhibitory concentration (IC50) entry (in experiment [1] (hek293); in experiment [2] (mdck); in experiment [3]; at Histamine H2 receptor; in experiment [4]; in experiment [5]) was “Not Active” each time. Further, the IC50 entry at Adenosine receptor A1 is reported as “Not Active”. In experiment [4], the inhibitory constant (Ki) result was “Not Active”.
Turning to `CN(C/C=C/C#CC(C)(C)C)Cc1cccc2ccccc12` [TERBINAFINE], the IC50 result in experiment [1] (hek293) was “Not Active”; in experiment [2] (read-out: IC50) it was 4.13 µM; in experiment [3] it was “Not Active”; on Histamine H2 receptor, “Not Active”; in experiment [4] it was “Not Active”; in experiment [5], “Not Active”. Besides, on Adenosine receptor A1, the half-inhibitory concentration (IC50) result is on record as “Not Active”. In addition, the inhibition constant (Ki) is 4.1 µM in experiment [2] (read-out: Ki) and “Not Active” in experiment [4].
`CCCCNc1ccc(C(=O)OCCN(C)C)cc1` [TETRACAINE]: the IC50 entry (in experiment [1] (hek293); in experiment [2] (mdck); in experiment [3]; on Histamine H2 receptor; in experiment [4]; in experiment [5]) was “Not Active” throughout. Also, the 50% inhibitory concentration (IC50) result on Adenosine receptor A1 was “Not Active”. For the same compound, the Ki entry in experiment [4] is on record as “Not Active”.
Turning to `CC[C@@H](C(=O)[C@@H](C)[C@@H](O)[C@H](C)[C@@H]1O[C@@H]([C@@H](CC)C(=O)O)CC[C@@H]1C)[C@H]1O[C@]2(C=C[C@@H](O)[C@]3(CC[C@@](C)([C@H]4CC[C@](O)(CC)[C@H](C)O4)O3)O2)[C@H](C)C[C@@H]1C` [SALINOMYCIN], the IC50 result (in experiment [1] (hek293); in experiment [2] (mdck); in experiment [3]; on Histamine H2 receptor; in experiment [4]; in experiment [5]) was “Not Active” in each case. At Adenosine receptor A1, the IC50 result is listed as “Not Active”. Besides, the Ki entry in experiment [4] is given as “Not Active”.
Consider `Cc1c(C)c2c(c(C)c1O)CCC(C)(CN1CCN(c3cc(N4CCCC4)nc(N4CCCC4)n3)CC1)O2` (centres undefined), for which the half-inhibitory concentration (IC50) is 26700 nM in experiment [1] (read-out: IC50); “Not Active” in experiment [2] (mdck); “Not Active” in experiment [3]; “Not Active” against Histamine H2 receptor; “Not Active” in experiment [4]; “Not Active” in experiment [5]. The half-inhibitory concentration (IC50) entry against Adenosine receptor A1 was “Not Active”. For the same compound, the Ki in experiment [1] (read-out: Ki) is 13100 nM; in experiment [4], “Not Active”.
In the case of `Clc1ccccc1CN1CCc2sccc2C1` [TICLOPIDINE], the IC50 entry (in experiment [1] (hek293); in experiment [2] (mdck); in experiment [3]; at Histamine H2 receptor; in experiment [4]; in experiment [5]) was “Not Active” each time. At Adenosine receptor A1, the IC50 result is given as “Not Active”. Further, the Ki result in experiment [4] is “Not Active”.
On to `CS(=O)(=O)c1ccc([C@@H](O)[C@@H](CO)NC(=O)C(Cl)Cl)cc1` [THIAMPHENICOL], for which the concentration for half-maximal inhibition (IC50) entry (in experiment [1] (hek293); in experiment [2] (mdck); in experiment [3]; at Histamine H2 receptor; in experiment [4]; in experiment [5]) was “Not Active” in each case. The IC50 entry against Adenosine receptor A1 is “Not Active”. Further, the inhibition constant Ki entry in experiment [4] is “Not Active”.
For the compound `O=C(Oc1ccccc1C(=O)O)c1ccccc1O` [SALSALATE], the 50% inhibitory concentration (IC50) entry (in experiment [1] (hek293); in experiment [2] (mdck); in experiment [3]; against Histamine H2 receptor; in experiment [4]; in experiment [5]) was “Not Active” throughout. Further, the 50% inhibitory concentration (IC50) result on Adenosine receptor A1 is recorded as “Not Active”. Further, the inhibition constant (Ki) result in experiment [4] is listed as “Not Active”.
Consider `CC(C)NCC(O)c1ccc(NS(C)(=O)=O)cc1` (centres undefined) [SOTALOL], for which the 50% inhibitory concentration (IC50) entry (in experiment [1] (hek293); in experiment [2] (mdck); in experiment [3]; against Histamine H2 receptor; in experiment [4]; in experiment [5]) was “Not Active” in each case. Also, the IC50 entry on Adenosine receptor A1 is given as “Not Active”. In addition, in experiment [4], the Ki result was “Not Active”.
As for MANGANESE CHLORIDE ANHYDROUS, the IC50 entry (in experiment [1] (hek293); in experiment [2] (mdck); in experiment [3]; against Histamine H2 receptor; in experiment [4]; in experiment [5]) was “Not Active” in each case. Besides, at Adenosine receptor A1, the 50% inhibitory concentration (IC50) entry is recorded as “Not Active”. The inhibitory constant (Ki) result (in experiment [1] (hek293); in experiment [2] (mdck); in experiment [3]; on Histamine H2 receptor; in experiment [4]; in experiment [5]) was “Not Active” each time. Moreover, the Ki result on Adenosine receptor A1 is “Not Active”.
For the compound `O.O.O.O.O.O.[Cl-].[Cl-].[Sr+2]` [STRONTIUM CHLORIDE HEXAHYDRATE], the IC50 result (in experiment [1] (hek293); in experiment [2] (mdck); in experiment [3]; against Histamine H2 receptor; in experiment [4]; in experiment [5]) was “Not Active” each time. Moreover, the IC50 entry against Adenosine receptor A1 is “Not Active”. The Ki entry in experiment [4] is recorded as “Not Active”.
Take `Nc1cc(N2CCCCC2)nc(N)[n+]1[O-]` [MINOXIDIL]: the IC50 entry (in experiment [1] (hek293); in experiment [2] (mdck); in experiment [3]; against Histamine H2 receptor; in experiment [4]; in experiment [5]) was “Not Active” in each case. The half-inhibitory concentration (IC50) entry on Adenosine receptor A1 is “Not Active”. In addition, the inhibitory constant (Ki) entry in experiment [4] is recorded as “Not Active”.
For `CO[C@H]1/C=C/O[C@@]2(C)Oc3c(C)c(O)c4c(O)c(c(/C=N/N5CCN(C6CCCC6)CC5)c(O)c4c3C2=O)NC(=O)/C(C)=C\C=C\[C@H](C)[C@H](O)[C@@H](C)[C@@H](O)[C@@H](C)[C@H](OC(C)=O)[C@@H]1C` [RIFAPENTINE], the IC50 result (in experiment [1] (hek293); in experiment [2] (mdck); in experiment [3]; at Histamine H2 receptor; in experiment [4]; in experiment [5]) was “Not Active” each time. In addition, the IC50 entry at Adenosine receptor A1 was “Not Active”. The Ki result in experiment [4] is on record as “Not Active”.
For `Cc1cccc(C)c1OCC(C)N` (centres undefined) [MEXILETINE], the IC50 result (in experiment [1] (hek293); in experiment [2] (mdck); in experiment [3]; on Histamine H2 receptor; in experiment [4]; in experiment [5]) was “Not Active” in each case. In addition, the IC50 entry at Adenosine receptor A1 is “Not Active”. In experiment [4], the inhibitory constant (Ki) result was “Not Active”.
For `COc1c2occc2cc2ccc(=O)oc12` [METHOXSALEN], the IC50 entry (in experiment [1] (hek293); in experiment [2] (mdck); in experiment [3]; at Histamine H2 receptor; in experiment [4]; in experiment [5]) was “Not Active” throughout. In addition, at Adenosine receptor A1, the IC50 result is on record as “Not Active”. The Ki entry in experiment [4] is “Not Active”.
`C[C@H]1C[C@@H]2[C@H]([C@@H](O)C[C@@]3(C)[C@H]2CC[C@]3(O)C(=O)CO)[C@@]2(C)C=CC(=O)C=C12` [METHYLPREDNISOLONE]: the IC50 entry (in experiment [1] (hek293); in experiment [2] (mdck); in experiment [3]; against Histamine H2 receptor; in experiment [4]; in experiment [5]) was “Not Active” throughout. For the same compound, the IC50 result at Adenosine receptor A1 was “Not Active”. Further, the inhibitory constant (Ki) entry in experiment [4] is “Not Active”.
In the case of `COc1cc2nc(N3CCN(C(=O)C4CCCO4)CC3)nc(N)c2cc1OC` (centres undefined) [TERAZOSIN], the half-inhibitory concentration (IC50) in experiment [1] (read-out: IC50) was 17 nM; in experiment [2] (mdck), “Not Active”; in experiment [3] it was “Not Active”; against Histamine H2 receptor it was “Not Active”; in experiment [4], “Not Active”; in experiment [5] it was “Not Active”. In addition, at Adenosine receptor A1, the IC50 result is “Not Active”. For the same compound, the inhibitory constant (Ki) in experiment [1] (read-out: Ki) was 8.36 nM; in experiment [4], “Not Active”.

The values above are taken from ChEMBL document CHEMBL1909046, “DrugMatrix in vitro pharmacology data”.
